Assays:
[1] = test system: bacterial endotoxin induced exudative response; experiment: Bacterial endotoxin induced exudative response in rabbits, anterior chamber fluorophotometry of FITC-dextran; assay type: in vivo, New Zealand albino rabbits; conditions: topical 4 mg/ml; for Anterior Chamber Fluorophotometer Results, Mean: Mean of 5 rabbits; for Anterior Chamber Fluorophotometer Results, Mean / Anterior Chamber Fluorophotometer Results: treated right eye, FITC-dextran fluorescence 90 minutes after endotoxin; for Anterior Chamber Fluorophotometer Results: 50 μL drop at 0, 1, 2 and 3 hours; for reduction in the exudative response / exudative response (result in words): treated eye versus saline control eye; for reduction in the exudative response: n=5, p<0.03 (Wilcoxon signed rank test); for exudative response (result in words): n=5
Experimental: Thirty New Zealand albino rabbits weighing between 2.5 and 3.0 kg were used for this study. The rabbits were treated in accordance with the guidelines of the Association for Research in Vision and Ophthalmology (ARVO). One eye of each animal was used for experimental purposes, the other serving as a control eye. Slit lamp and indirect funduscopic examination was performed on all eyes before and after euthanasia.
The rabbits were divided into six groups. Group 1 (n=5) received topical 4 mg/ml deoxycortisone acetate (Spectrum Chemical Corp). Group 2 (n=5) received topical 4 mg/ml 11 -deoxycorticosterone (Spectrum Chemical Corp). Group 3 (n=5) received topical 4 mg/ml 11-desoxycortisone (Spectrum Chemical Corp). Group 4 (n=5) received topical 4 mg/ml aldosterone (Farmabios, Italy). Group 5 (n=5) received topical 4 mg/ml deoxycorticosterone (Spectrum Chemical Corp). Group 6 (n=5) received topical fludrocortisone acetate (Farmabios, Italy).
The rabbits were anaesthetised with 1 ml of a mixture of ketamine hydrochloride (35 mg/kg, intramuscular) and xylazine hydrochloride (5 mg/kg, intramuscular). In all groups, drugs were applied topically to the right eye and saline was applied to the left eye four times (at time 0, 1, 2 and 3 hours). Drugs and saline were administered to the eye as a single 50 μL drop.
20 mg/ml dextran-isothiocyanate-fluorescein (FITC-dextran, Sigma) was prepared and a 20 mg/kg dose was injected into the marginal ear vein at time […].
Endotoxin (2.5 μg/kg) isolated from Salmonella typhimurium (Sigma) was injected into the same vein at the same time with the third drop occurring at time 2 hours.
The FITC-dextran concentration in the anterior chamber was determined using a prototype fluorophotometer (OcuMetrics, Mountain View, Calif.) 90 minutes after an endotoxin administration. This instrument has excitation wavelengths of approximately 410 to 490 nm, with emission wavelengths of approximately 520 to 630 nm. The fluorescence emitted by the FITC-dextran was determined in both left and right eyes.
Statistical analysis was performed, comparing the anterior chamber fluorescence measurements of the test and control eye of each animal. A paired Wilcoxon Signed Rank Test (StatXact) was used, with a one sided p-value.

VEGF receptor Flk-1 = experiment: FACS analysis of Flk-1 expression in choroidal endothelial cells; assay type: cell-based; conditions: Example 1, FIG. 1; choroidal endothelial cells treated with PMA, compared to control cells
Experimental: (§1) To show the capacity of a mineralocorticoid, specifically fludrocortisone, to down-regulate receptors involved in biochemical pathways associated with oedema and exudative retinopathies, an assay was conducted looking at the activity of VEGF receptors Flk-1 and Flt-1 in choroidal endothelial cells. Flk-1 is known to be involved in cell proliferation whilst Flt-1 is involved in cell permeability.
(§2) The expression of Flk-1 and Flt-1 was measured, using fluorescence activated cell sorting (FACS) analysis, in untreated cells, cells treated with phorbolmyristate acetate (PMA), cells treated with PMA and then with the glucocorticoid triamcinolone acetonide (TA) and cells treated with PMA and then with the mineralocorticoid fludrocortisone. PMA is a model for pro-inflammatory cytokines and TA is known to […] the glucocorticoid receptor
(§3) The expression of Flk-1 and Flt-1 was also investigated in untreated choroidal endothelial cells, choroidal endothelial cells treated with Tumour Necrosis Factor-α (TNF-α) and choroidal endothelial cells treated with the mineralocorticoid fludrocortisone. TNF-α is a pro-inflammatory cytokine.

VEGF receptor Flt-1 = experiment: FACS analysis of Flt-1 expression in choroidal endothelial cells; assay type: cell-based
Experimental: as §1, §2, §3

Compound | Anterior Chamber Fluorophotometer Results, Mean [1] | Anterior Chamber Fluorophotometer Results ([1]; Rabbit 1) | Anterior Chamber Fluorophotometer Results ([1]; Rabbit 2) | Anterior Chamber Fluorophotometer Results ([1]; Rabbit 3) | Anterior Chamber Fluorophotometer Results ([1]; Rabbit 4) | Anterior Chamber Fluorophotometer Results ([1]; Rabbit 5) | reduction in the exudative response [1] [%] | exudative response (result in words) [1] | expression of Flk-1 (VEGF receptor Flk-1) | expression of Flt-1 (VEGF receptor Flt-1; Example 1, FIG. 1, choroidal endothelial cells treated with PMA) | expression of Flt-1 (VEGF receptor Flt-1; Example 2, FIG. 2, choroidal endothelial cells, compared to untreated control cells)
C[C@]12CC[C@H]3[C@@H](CCC4=CC(=O)CC[C@@]43C)[C@@H]1CC[C@@H]2C(=O)CO [DS, 21-hydroxypregn-4-ene-3,20-dione] | 174 | 340 | 245 | 59 | 86 | 140 | 37 | – | – | – | –
CC(=O)OCC(=O)[C@@]1(O)CC[C@H]2[C@@H]3CCC4=CC(=O)CC[C@]4(C)[C@@]3(F)[C@@H](O)C[C@@]21C [FA, fludrocortisone acetate] | 166 | 27 | 86 | 261 | 445 | 10 | 34 | – | – | – | –
C[C@]12CCC(=O)C=C1CC[C@@H]1[C@@H]2[C@@H](O)C[C@]2(C=O)[C@@H](C(=O)CO)CC[C@@H]12 [AS, 11β-11,21-dihydroxy-3,20-dioxopregen-4-en-18-al] | 248 | 243 | 75 | 125 | 540 | 256 | – | very variable | – | – | –
CC(=O)OCC(=O)[C@H]1CC[C@H]2[C@@H]3CCC4=CC(=O)CC[C@]4(C)[C@H]3CC[C@]12C [DA, 21-hydroxypregn-4-ene-3,20-dione 21 acetate] | 201 | 220 | 116 | 455 | 100 | 113 | 47 | – | – | – | –
CCCCCCCCCCCCCC(=O)O[C@@H]1[C@@H](C)[C@@]2(O)[C@@H](C=C(CO)C[C@]3(O)C(=O)C(C)=C[C@@H]23)[C@@H]2C(C)(C)[C@]12OC(C)=O [PMA, phorbolmyristate acetate] | – | – | – | – | – | – | – | – | increased | increased | –
C[C@]12CCC(=O)C=C1CC[C@@H]1[C@@H]2CC[C@@]2(C)[C@H]1CC[C@]2(O)C(=O)CO [11-DC, 17α,21-dihydroxypregn-4-ene-3,20-dione] | 331 | 696 | 578 | 141 | 147 | 92 | 37 | – | – | – | –
C[C@]12CC[C@H]3[C@@H](CCC4=CC(=O)CC[C@@]43C)[C@@H]1CC[C@@H]2C(=O)CO [11 -deoxycorticosterone] | – | – | – | – | – | – | – | did not show a reduction in the exudative response | – | – | –
TNF-α | – | – | – | – | – | – | – | – | – | – | higher levels of Flt-1
